For 22 compounds, IC50 results are on record in patent US7750017B2, “Heterocycles” (Bayer Schering Pharma Aktiengesellschaft, priority 2004, dated 2010).

Counter-ions that a name gives are not always drawn.

Test [1] relates to BT474 [human breast carcinoma, overexpressing HER2 (ErbB2)]. As to the kind of experiment: In vitro tumor cell proliferation assay (Cell Titer-Glo luminescent cell viability), BT474 cells. Format: cell-based. To be noted: BT-474, 72 h, 72 hours of drug exposure, Cell Titer-Glo readout, read-out: IC50, anti-proliferative activity in BT474 cells. The source says: (§1) The utility of the compounds of the present invention can be illustrated, for example, by their activity in vitro in the in vitro tumor cell proliferation assay described below. The link between activity in tumor cell proliferation assays in vitro and anti-tumor activity in the clinical setting has been very well established in the art.
(§2) The following assay is one of the methods by which compound activity relating to treatment of the disorders identified herein can be determined.
(§3) The tumor cell proliferation assay used to test the compounds of the present invention involves a readout called Cell Titer-Glow® Luminescent Cell Viability Assay developed by Promega® (Cunningham, B A “A Growing Issue: Cell Proliferation Assays, Modern kits ease quantification of cell growth” The Scientist 2001, 15(13), 26, and Crouch, S P et al., “The use of ATP bioluminescence as a measure of cell proliferation and cytotoxicity” Journal of Immunological Methods 1993, 160, 81-88), that measures inhibition of cell proliferation. Generation of a luminescent signal corresponds to the amount of ATP present, which is directly proportional to the number of metabolically active (proliferating) cells.
(§4) A431 cells [human epidermoid carcinoma, ATCC # […], overexpressing HER1 (EGFR, ErbB1)] and BT474 [human breast carcinoma, ATCC # CRL-1555, overexpressing HER2 (ErbB2)] were plated at a density of 2.5×10^3 cells/well in 96 well black-clear bottom tissue culture plates in RPMI media with 10% Fetal Bovine Serum and incubated at 37° C. Twenty-four hours later, test compounds are added at a final concentration range from as high 100 μm to as low 64 pM depend on the activities of the tested compounds in serial dilutions at a final DMSO concentration of 0.1%. Cells were incubated for 72 hours at 37° C. in complete growth media after addition of the test compound. After 72 hours of drug exposure, the plates were equilibrated to room temperature for approximately 30 min. Then, using a Promega Cell Titer Glo Luminescent® assay kit, lysis buffer containing 100 microliters of the enzyme luciferase and its substrate, luciferin mixture, was added to each well. The plates were mixed for 2 min on orbital shaker to ensure cell lysis and incubated for 10 min at room temperature to stabilize luminescence signal. The samples were read on VICTOR 2 using Luminescence protocol, and analyzed with Analyze5 software to generate IC50 values.
In general terms: In ATP-based viability assays light output follows the ATP content of the culture.

Test [2] concerns A431 cells [human epidermoid carcinoma, overexpressing HER1 (EGFR, ErbB1)]. As to the kind of experiment: In vitro tumor cell proliferation assay (Cell Titer-Glo luminescent cell viability), A431 cells. To be noted: A-431, 72 h, 72 hours of drug exposure, Cell Titer-Glo readout, read-out: IC50, anti-proliferative activity in A431 cells. Format: cell-based.
From the text: as §1, §2, §3, §4

For `OCC(O)c1ccc2c(c1)sc1ncnc(Nc3ccc4c(cnn4Cc4cccc(F)c4)c3)c12` (centres unmarked) [Example 115, 1-(4-{[1-(3-fluorobenzyl)-1H-indazol-5-yl]amino}[1]benzothieno [2,3-d]pyrimidin-7-yl)ethane-1,2-diol], the IC50 (commonly the concentration at which inhibition is half-maximal) in test [1] is not above 0.5 µM; in test [2], not above 5 µM.

For `CN(C)[C@H]1CCN(C(=O)Cc2ccc3c(c2)sc2ncnc(Nc4ccc5c(cnn5Cc5cccc(F)c5)c4)c23)C1` [Example 125, 7-{2-[3-(dimethylamino)pyrrolidin-1-yl]-2-oxoethyl}-N-[1-(3-fluorobenzyl)-1H-indazol-5-yl] [1]benzothieno[2,3-d]pyrimidin-4-amine], the IC50 in test [1] was not above 0.5 µM; in test [2], not above 5 µM.

`Oc1ccc2c(c1)sc1ncnc(Nc3ccc(OCc4ccccn4)c(Cl)c3)c12` [Example 110, 4-{[3-chloro-4-(pyridin-2-ylmethoxy)phenyl]amino}[1] benzothieno[2,3-d]pyrimidin-7-ol]: the IC50 in test [1] is not above 5 µM; in test [2] it was not above 50 µM.

Consider `OCCNCCc1ccc2c(c1)sc1ncnc(Nc3ccc(OCc4cccc(F)c4)c(Cl)c3)c12` [Example 22, 2-({2-[4-({3-chloro-4-[(3-fluorobenzyl)oxy]phenyl}amino) [1]benzothieno [2,3-d]pyrimidin-7-yl]ethyl}amino)ethanol], for which the results for the half-inhibitory concentration (IC50) in test [1] and in test [2] were not above 0.5 µM and not above 5 µM, respectively.

For the compound `CN(C)CCNC(=O)CCc1ccc2c(c1)sc1ncnc(Nc3ccc(OCc4cccc(F)c4)c(Cl)c3)c12` [Example 70, 3-[4-({3-chloro-4-[(3-fluorobenzyl)oxy]phenyl}amino)[1]benzothieno[2,3-d]pyrimidin-7-yl]-N-[2-(dimethylamino)ethyl] propanamide], the IC50 in test [1] and in test [2] was not above 5 µM in each case.

With `CS(=O)(=O)CCNC(=O)Cc1ccc2c(c1)sc1ncnc(Nc3ccc(OCc4ccccn4)c(Cl)c3)c12` [Example 102, 2-(4-{[3-chloro-4-(pyridin-2-ylmethoxy)phenyl]amino}[1]benzothieno[2,3-d]pyrimidin-7-yl)-N-[2-(methylsulfonyl)ethyl] acetamide], the figures for the concentration for half-maximal inhibition (IC50) in test [1] and in test [2] were not above 0.5 µM and not above 50 µM, respectively.

Take `OC[C@@H](O)c1ccc2c(c1)sc1ncnc(Nc3ccc(OCc4ccccn4)c(Cl)c3)c12` [Example 74, (1S)-1-(4-{[3-chloro-4-(pyridin-2-ylmethoxy)phenyl]amino}[1]benzothieno[2,3-d]pyrimidin-7-yl)ethane-1,2-diol]: the IC50 in test [1] was not above 0.5 µM; in test [2] it was not above 50 µM.

Consider `COCCN(CCOC)CCc1ccc2c(c1)sc1ncnc(Nc3ccc(OCc4ccccn4)c(Cl)c3)c12` [Example 93, 7-{2-[bis(2-methoxyethyl)amino]ethyl}-N-[3-chloro-4-(pyridin-2-ylmethoxy)phenyl][1]benzothieno [2,3-d]pyrimidin-4-amine trifluoroacetate], for which the concentration for half-maximal inhibition (IC50) in test [1] is not above 0.5 µM; in test [2], not above 50 µM.

With `COCCN(C)C(=O)Cc1ccc2c(c1)sc1ncnc(Nc3ccc(OCc4ccccn4)c(Cl)c3)c12` [Example 103, 2-(4-{[3-chloro-4-(pyridin-2-ylmethoxy)phenyl]amino}[1]benzothieno[2,3-d]pyrimidin-7-yl)-N-(2-methoxyethyl)-N-methylacetamide], the figures for the IC50 in test [1] and in test [2] were not above 5 µM and not above 50 µM, respectively.

Consider `CN(C)[C@H]1CCN(C(=O)C(O)C(O)c2ccc3c(c2)sc2ncnc(Nc4ccc(OCc5cccc(F)c5)c(Cl)c4)c23)C1` (stereo partly drawn) [Example 59, 1-[4-({3-chloro-4-[(3-fluorobenzyl)oxy]phenyl}amino) [1]benzothieno[2,3-d]pyrimidin-7-yl]-3-[(3S)-3-(dimethylamino)pyrrolidin-1-yl]-3-oxopropane-1,2-diol], for which the IC50 was not above 5 µM in test [1] and not above 50 µM in test [2].

Regarding `CS(=O)(=O)CCNC(=O)CCc1ccc2c(c1)sc1ncnc(Nc3ccc(OCc4cccc(F)c4)c(Cl)c3)c12` [Example 69, 3-[4-({3-chloro-4-[(3-fluorobenzyl)oxy]phenyl}amino)[1]benzothieno[2,3-d]pyrimidin-7-yl]-N-[2-(methylsulfonyl)ethyl] propanamide], the half-inhibitory concentration (IC50) in test [1] is not above 0.5 µM; in test [2], not above 5 µM.

With `COCCN(CCOC)C(=O)Cc1ccc2c(c1)sc1ncnc(Nc3ccc(OCc4ccccn4)c(Cl)c3)c12` [Example 101, 2-(4-{[3-chloro-4-(pyridin-2-ylmethoxy)phenyl]amino}[1]benzothieno[2,3-d]pyrimidin-7-yl)-N,N-bis (2-methoxyethyl)acetamide], the IC50 in test [1] and in test [2] was not above 5 µM in each case.

In the case of `Clc1cc(Nc2ncnc3sc4cc(NCCN5CCOCC5)ccc4c23)ccc1OCc1ccccn1` [Example 78, N4-[3-chloro-4-(pyridin-2-ylmethoxy)phenyl]-N7-(2-morpholin-4-ylethyl)[1] benzothieno[2,3-d]pyrimidine-4,7-diamine trifluoroacetate], the values for the half-inhibitory concentration (IC50) in test [1] and in test [2] were not above 5 µM and not above 50 µM, respectively.

For the compound `CS(=O)(=O)CCNCCc1ccc2c(c1)sc1ncnc(Nc3ccc(OCc4ccccn4)c(Cl)c3)c12` [Example 85, N-[3-chloro-4-(pyridin-2-ylmethoxy)phenyl]-7-(2-{[2-(methylsulfonyl)ethyl]amino}ethyl) [1]benzothieno[2,3-d]pyrimidin-4-amine trifluoroacetate], the values for the concentration for half-maximal inhibition (IC50) in test [1] and in test [2] were not above 0.5 µM and not above 5 µM, respectively.

In the case of `COCCN(CCOC)CCc1ccc2c(c1)sc1ncnc(Nc3ccc(OCc4cccc(F)c4)c(Cl)c3)c12` [Example 6, 7-{2-[bis(2-methoxyethyl)amino]ethyl}-N-{3-chloro-4-[(3-fluorobenzyl)oxy]phenyl}[1] benzothieno[2,3-d]pyrimidin-4-amine], the IC50 in test [1] is not above 0.5 µM; in test [2], not above 5 µM.

For `COCCN1CCN(CCc2ccc3c(c2)sc2ncnc(Nc4ccc(OCc5cccc(F)c5)c(Cl)c4)c23)CC1` [Example 12, N-{3-chloro-4-[(3-fluorobenzyl)oxy]phenyl}-7-{2-[4-(2-methoxyethyl)piperazin-1-yl]ethyl}[1]benzothieno [2,3-d]pyrimidin-4-amine], the IC50 in test [1] was not above 0.5 µM; in test [2], not above 5 µM.

For the compound `CN1CCN(c2ccc3c(c2)sc2ncnc(Nc4ccc(OCc5ccccn5)c(Cl)c4)c23)CC1` [Example 77, N-[3-chloro-4-(pyridin-2-ylmethoxy)phenyl]-7-(4-methylpiperazin-1-yl)[1]benzothieno [2,3-d]pyrimidin-4-amine trifluoroacetate], the values for the half-inhibitory concentration (IC50) in test [1] and in test [2] were not above 0.5 µM and not above 5 µM, respectively.

Turning to `NS(=O)(=O)OCCc1ccc2c(c1)sc1ncnc(Nc3ccc(OCc4ccccn4)c(Cl)c3)c12` [Example 109, 2-(4-{[3-chloro-4-(pyridin-2-ylmethoxy)phenyl]amino}[1]benzothieno[2,3-d]pyrimidin-7-yl)ethyl sulfamate], the concentration for half-maximal inhibition (IC50) in test [1] was not above 0.5 µM; in test [2] it was not above 5 µM.

Regarding `Fc1cccc(COc2ccc(Nc3ncnc4sc5cc(CCN6CCCC6)ccc5c34)cc2Cl)c1` [Example 11, N-{3-chloro-4-[(3-fluorobenzyl)oxy]phenyl}-7-(2-pyrrolidin-1-ylethyl)[1] benzothieno[2,3-d]pyrimidin-4-amine], the results for the half-inhibitory concentration (IC50) in test [1] and in test [2] were not above 0.5 µM and not above 5 µM, respectively.

On to `Clc1cc(Nc2ncnc3sc4cc(Br)ccc4c23)ccc1OCc1ccccn1` [Example 71, 7-bromo-N-[3-chloro-4-(pyridin-2-ylmethoxy)phenyl][1]benzothieno[2,3-d]pyrimidin-4-amine], for which the IC50 in test [1] is not above 5 µM; in test [2] it was not above 50 µM.

For the compound `Fc1cccc(COc2ccc(Nc3ncnc4sc5cc(CCN6CCOCC6)ccc5c34)cc2Cl)c1` [Example 10, N-{3-chloro-4-[(3-fluorobenzyl)oxy]phenyl}-7-(2-morpholin-4-ylethyl)[1] benzothieno[2,3-d]pyrimidin-4-amine], the IC50 in test [1] was not above 0.5 µM; in test [2], not above 50 µM.

For `COC1CCN(CCc2ccc3c(c2)sc2ncnc(Nc4ccc(OCc5cccc(F)c5)c(Cl)c4)c23)C1` (centres unmarked) [Example 20, N-{3-chloro-4-[(3-fluorobenzyl)oxy]phenyl}-7-[2-(3-methoxypyrrolidin-1-yl)ethyl][1] benzothieno[2,3-d]pyrimidin-4-amine], the concentration for half-maximal inhibition (IC50) in test [1] is not above 0.5 µM; in test [2], not above 5 µM.
